Data on 10 molecules can be found in patent publication US20100136537A1, “PHOTORECEPTOR PRECURSOR CELLS” (THE REGENTS OF THE UNIVERSITY OF MICHIGAN, priority 2006, published 2010).

One experiment deals with T1, mGluR8 (Mus musculus, UniProt P47743).
T1 construct: from tissue; host or cells: whole-mount mouse neural retina; integrated Nrl.gfp-positive donor rods and recipient photoreceptors
In words: Calcium imaging (Fura Red) of whole-mount transplanted retinas, mGluR8 stimulation. Format: cell-based. Conditions: for changes in intracellular calcium ([Ca2+]i) on agonist application: recipient and Nrl.gfp-positive integrated rod cells, DCPG 20 μM in bath. As to the method:
(§1) Calcium Imaging. Retinas transplanted with Nrl.gfp^+/+ P1 cells were dissected free of all surrounding tissue. Whole-mount neural retinas were loaded with Fura Red-AM (15 μM, Molecular Probes) and the dispersant Cremophor-EL (0.03%, Sigma) for 1.5 hrs at 36° C. and then de-esterified in fresh DMEM-F12 (without phenol red) for 30 mins at 36° C. Retinas were transferred to the stage of an inverted microscope (SP2, Leica, UK) and held flat under a nylon-strung platinum wire ‘harp’. XY images were taken through the cell bodies in the inner region of the ONL, nearest the outer plexiform layer, where rod (as opposed to cone, which lie at the outer edge of the ONL) photoreceptor nuclei reside. Images were acquired at 3 sec intervals and analysed off-line. Cells were selected at random and the mean fluorescence of individual cells was calculated and normalised against the fluorescence at time 0s. Drugs were applied by micro-pipette injection into the bathing solution.
(§2) Drugs. DCPG ((S)-3,4-dicarboxyphenylglycine) (20 μM; final concentration in bath), CPPG ((RS)-alpha-cyclopropyl-4-phosphonophenylglycine) (100 μM) and NMDA (N-methyl-D-aspartate) (200 μM) were supplied by Tocris (UK).
In general terms: A change in cytosolic calcium serves as a functional read-out for many receptors and channels.

The subject of the next experiment is NRL. Description: NRL expression in serum-starved Y79 cells (immunoblot, Northern blot). It is filed as cell-based, human. To be noted: for NRL expression (immunoblot): 24 h incubation. As to the method:
Cell Culture. Y79 human retinoblastoma cells (ATCC HTB 18) and HEK293 (ATCC CRL-1573) were maintained in RPMI 1640 and Dulbecco's modified Eagle's medium, respectively, under standard conditions with 15% (v/v) fetal bovine serum (FBS), penicillin G (100 units/ml), and streptomycin (100 μg/ml) at 37° C. and 5% CO2. For serum starvation and RA treatment experiments, Y79 cells (5×10^4) were cultured in the presence or absence of the serum (same batch of serum was used in all the experiments), at RA, 9-cis-RA, cycloheximide (CHX), and 4-(E-2-(5,6,7,8-tetrahydro-5,5,8,8-tetramethyl-2-naphthalenl)-1-propenyl) benzoic acid (TTNPB) at indicated concentrations. Me2SO or ethanol was added to Y79 cells in lieu of the soluble factors as negative control.
For protein synthesis inhibition experiments, Y79 cells were serum-starved for 24 h, and then simultaneously treated with RA and CHX for 8 or 24 h. NRL expression was analyzed by immunoblotting. In another set of experiments, serum-starved Y79 cells were first incubated with RA alone for 8 or 24 h and then CHX was added. Cell extracts were then analyzed 24 h later for examining NRL expression by immunoblotting.
Protein Expression Analysis.
In general terms: In western blotting, separated proteins are transferred to a membrane and probed.

A further experiment has as its system NMDA receptor. In words: Calcium imaging (Fura Red) of whole-mount transplanted retinas, NMDA receptor agonist. It is filed as cell-based, mouse. Conditions: NMDA 200 μM; photoreceptors. The protocol: as §1, §2
Experiment [1] concerns the target T2, CEP290 (wild-type mouse centrosomal protein CEP290, endogenous, retina) (mouse, UniProt Q6A078 1-2472).
T2 construct: range 1-2472; Endogenous protein in retinal extracts; alternatively spliced lower-mass isoforms are also mentioned; also called WT protein; full-length CEP290
Description: co-immunoprecipitation from retinal extracts, immunoblot.

Experiment [2] has as its target ΔCEP290 (truncated CEP290 of the rd16 mouse, in-frame deletion of amino acid residues 1599-1897) (mouse) (UniProt Q6A078). In words: co-immunoprecipitation with ORF15^CP antibody from rd16 vs WT retinal extract, immunoblot for CEP290.

T1 sequence (P47743 34-908): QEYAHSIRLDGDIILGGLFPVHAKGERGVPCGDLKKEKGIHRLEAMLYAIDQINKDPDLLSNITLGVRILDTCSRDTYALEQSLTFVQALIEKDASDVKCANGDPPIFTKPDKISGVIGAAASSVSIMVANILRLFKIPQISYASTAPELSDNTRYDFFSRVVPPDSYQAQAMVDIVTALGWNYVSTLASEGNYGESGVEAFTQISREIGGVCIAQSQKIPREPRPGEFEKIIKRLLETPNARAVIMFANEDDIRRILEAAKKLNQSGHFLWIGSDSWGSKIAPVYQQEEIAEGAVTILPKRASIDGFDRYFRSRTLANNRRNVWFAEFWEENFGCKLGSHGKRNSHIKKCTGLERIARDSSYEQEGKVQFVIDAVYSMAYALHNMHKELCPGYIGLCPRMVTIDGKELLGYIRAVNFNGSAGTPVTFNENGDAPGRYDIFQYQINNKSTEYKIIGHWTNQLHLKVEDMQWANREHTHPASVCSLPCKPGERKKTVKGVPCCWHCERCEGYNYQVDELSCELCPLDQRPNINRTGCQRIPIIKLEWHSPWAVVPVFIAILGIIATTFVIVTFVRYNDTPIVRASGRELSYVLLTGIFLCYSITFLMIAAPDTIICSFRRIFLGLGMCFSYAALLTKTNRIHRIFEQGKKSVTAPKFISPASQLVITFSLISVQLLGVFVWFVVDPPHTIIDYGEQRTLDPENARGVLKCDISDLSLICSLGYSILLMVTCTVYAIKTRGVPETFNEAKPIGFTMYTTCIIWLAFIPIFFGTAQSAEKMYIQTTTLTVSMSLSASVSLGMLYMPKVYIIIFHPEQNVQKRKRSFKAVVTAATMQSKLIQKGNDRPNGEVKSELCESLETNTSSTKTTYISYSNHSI
T2 sequence (Q6A078 whole entry, canonical isoform): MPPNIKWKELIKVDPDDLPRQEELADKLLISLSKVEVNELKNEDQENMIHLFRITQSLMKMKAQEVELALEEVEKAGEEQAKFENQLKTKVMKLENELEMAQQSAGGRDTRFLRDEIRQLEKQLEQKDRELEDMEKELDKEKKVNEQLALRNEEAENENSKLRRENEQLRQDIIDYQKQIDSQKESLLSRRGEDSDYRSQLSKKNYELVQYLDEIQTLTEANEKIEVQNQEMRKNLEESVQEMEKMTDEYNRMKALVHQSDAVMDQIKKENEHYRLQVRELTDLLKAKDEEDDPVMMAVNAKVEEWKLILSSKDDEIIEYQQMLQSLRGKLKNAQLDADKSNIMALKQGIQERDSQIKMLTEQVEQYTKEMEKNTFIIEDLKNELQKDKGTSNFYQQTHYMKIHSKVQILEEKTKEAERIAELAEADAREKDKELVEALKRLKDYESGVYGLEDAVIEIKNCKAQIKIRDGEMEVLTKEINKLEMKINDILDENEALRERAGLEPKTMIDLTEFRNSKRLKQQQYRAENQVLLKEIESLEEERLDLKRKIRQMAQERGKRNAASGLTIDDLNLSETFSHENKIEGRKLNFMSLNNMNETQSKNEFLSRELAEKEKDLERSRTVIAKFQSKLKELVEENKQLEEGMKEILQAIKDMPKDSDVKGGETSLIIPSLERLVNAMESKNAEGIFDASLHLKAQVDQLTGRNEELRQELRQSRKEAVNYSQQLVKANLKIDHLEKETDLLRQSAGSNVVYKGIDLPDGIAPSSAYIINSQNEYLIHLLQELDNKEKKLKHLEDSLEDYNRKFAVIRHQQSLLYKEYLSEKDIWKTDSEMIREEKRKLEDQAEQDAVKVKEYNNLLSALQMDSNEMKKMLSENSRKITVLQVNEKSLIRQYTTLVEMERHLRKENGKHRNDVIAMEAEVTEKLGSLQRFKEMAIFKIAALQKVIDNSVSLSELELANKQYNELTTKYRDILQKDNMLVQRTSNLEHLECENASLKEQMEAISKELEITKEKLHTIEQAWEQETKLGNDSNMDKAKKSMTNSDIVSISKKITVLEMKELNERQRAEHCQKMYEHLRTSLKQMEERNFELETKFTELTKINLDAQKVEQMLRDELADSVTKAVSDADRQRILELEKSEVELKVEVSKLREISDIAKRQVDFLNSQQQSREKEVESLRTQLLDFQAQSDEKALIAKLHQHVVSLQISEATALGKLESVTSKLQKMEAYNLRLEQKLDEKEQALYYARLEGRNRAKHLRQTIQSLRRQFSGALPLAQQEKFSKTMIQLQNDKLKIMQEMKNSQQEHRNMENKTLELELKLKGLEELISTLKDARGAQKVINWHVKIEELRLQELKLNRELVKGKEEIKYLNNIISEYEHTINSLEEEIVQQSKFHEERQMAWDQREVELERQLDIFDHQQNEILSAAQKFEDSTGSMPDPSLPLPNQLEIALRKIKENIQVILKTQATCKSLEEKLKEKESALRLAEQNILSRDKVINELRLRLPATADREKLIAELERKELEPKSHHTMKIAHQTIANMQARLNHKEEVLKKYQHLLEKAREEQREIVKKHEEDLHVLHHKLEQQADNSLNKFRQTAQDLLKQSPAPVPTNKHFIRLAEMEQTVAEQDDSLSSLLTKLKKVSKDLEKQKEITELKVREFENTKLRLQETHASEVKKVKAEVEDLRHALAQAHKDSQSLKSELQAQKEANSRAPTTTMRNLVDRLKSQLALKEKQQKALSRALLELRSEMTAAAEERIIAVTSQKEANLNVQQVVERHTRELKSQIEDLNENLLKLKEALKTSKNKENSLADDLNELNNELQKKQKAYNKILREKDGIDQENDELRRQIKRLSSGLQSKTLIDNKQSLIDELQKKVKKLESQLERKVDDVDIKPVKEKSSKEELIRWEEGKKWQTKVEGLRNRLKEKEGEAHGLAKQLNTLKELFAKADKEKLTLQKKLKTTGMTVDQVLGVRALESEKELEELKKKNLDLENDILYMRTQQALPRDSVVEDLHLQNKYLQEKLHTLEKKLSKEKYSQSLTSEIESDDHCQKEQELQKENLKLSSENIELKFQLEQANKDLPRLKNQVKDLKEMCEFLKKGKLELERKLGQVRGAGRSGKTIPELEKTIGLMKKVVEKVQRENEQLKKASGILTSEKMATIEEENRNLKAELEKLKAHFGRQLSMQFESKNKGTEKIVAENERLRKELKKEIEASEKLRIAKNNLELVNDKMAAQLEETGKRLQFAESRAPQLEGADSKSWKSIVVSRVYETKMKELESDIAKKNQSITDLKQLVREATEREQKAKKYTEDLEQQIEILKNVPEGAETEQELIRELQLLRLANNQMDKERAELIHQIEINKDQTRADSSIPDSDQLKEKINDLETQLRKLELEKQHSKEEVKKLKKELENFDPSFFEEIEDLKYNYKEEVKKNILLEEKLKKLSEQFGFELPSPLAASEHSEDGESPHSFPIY

As for `NC(C(=O)O)(c1ccc(P(=O)(O)O)cc1)C1CC1` (racemic) [CPPG, (RS)-alpha-cyclopropyl-4-phosphonophenylglycine], the “block of the mGluR8 agonist-evoked [Ca2+]i change” value at mGluR8 (CPPG 100 μM) is recorded as “can be blocked”. `C/C(=C\c1ccc(C(=O)O)cc1)c1ccc2c(c1)C(C)(C)CCC2(C)C` [TTNPB, 4-(E-2-(5,6,7,8-tetrahydro-5,5,8,8-tetramethyl-2-naphthalenl)-1-propenyl) benzoic acid]: in the experiment with NRL (serum-starved Y79 cells), the “NRL expression (immunoblot)” value is “mimicked”. `CC1=C(/C=C/C(C)=C\C=C\C(C)=C\C(=O)O)C(C)(C)CCC1` [9-cis RA, 9-cis-RA]: in the experiment with NRL (serum-starved Y79 cells), the “NRL expression (immunoblot)” value is reported as “dose-dependent increase in NRL expression”. In the case of `C[C@@H]1C[C@@H]([C@H](O)CC2CC(=O)NC(=O)C2)C(=O)[C@@H](C)C1` [CHX, cycloheximide], in the experiment with NRL (CHX 20 μg/ml with at RA, serum-starved Y79 cells), the “effect on RA-mediated NRL induction, added simultaneously with RA” value is listed as “blocked NRL induction”. The “effect on NRL expression, added after RA pretreatment” value with NRL (cells pretreated with RA for 8 or 24 h, then CHX) is “no detectable effect on NRL expression”. As to `N[C@H](C(=O)O)c1ccc(C(=O)O)c(C(=O)O)c1` [DCPG, (S)-3,4-dicarboxyphenylglycine], the “changes in intracellular calcium ([Ca2+]i) on agonist application” value at mGluR8 is “consistently evoked changes in ([Ca^2+]i)”. Still for that read-out and setting: for `N[C@@H](CCC(=O)O)C(=O)O` [glutamate] the value was “consistently evoked changes in ([Ca^2+]i)”. For the molecule `CN[C@H](CC(=O)O)C(=O)O` [NMDA, N-methyl-D-aspartate], the “effect of NMDA receptor agonist on [Ca2+]i” value with NMDA receptor is “showed no effect”.

B1: Nephrocystin-5 (NPHP5) (other, mouse, UniProt Q8BP00 1-598, looked up)
chain: MKPAGTDPRILSLAAEVAKSPEQNVPVILLKLKEIINNTPLGSSELKKVKQDIYCYDLIQYCLLVLSQDSSRIQGGWSTISQLTQILSHCCVGLEPGEDGEEFYKELLPSAAENFLILGRRLQTCFINATKGEEQDKLLHFFQIVTDSLFWLLGGHVQLIQNVLQSDHFLHLLQTDNVQIGASVMTLLQNILQINSGNLLKIEGKALHSILDEILFKLLSTPSPVIRSTATKLLLVLAESHQEILILLRLSACYKGLRSLLNKQETLTEFSRELRQLVDLLTPKIHQEVEEQKLHKAACLIQAYWKGFQTRKRLKKLPSAVIALQRSFRSKRTKMMLELNRQKEEEDLRLKLQLQRQRAMRLSRESRLNMLEIIHPGQVEKYNREMEEKSALTIQKHWRGYRERKNFRQQRPSLTEYKAAVTLQRAVLKFLAKCRKKKKLFASWHGLQELTDARRVELKQQVDDYVKRHPCSQMSEAASRELHAQAQERLQHYFMGRAIEERAQQHREALMAQISTNIEQLMKAPSLKEAEGKEPEQFLSRSRPVAAKAKQAHLTTLKHIQAPWWKKLGEEPGDEVDVPKDELSIDLGMLFIGGTKPP
B1: the binding result in experiment [1] is on record as “no binding”.

B2: nucleophosmin (NPM) (other, mouse, UniProt Q61937 1-292, looked up)
chain: MEDSMDMDMSPLRPQNYLFGCELKADKDYHFKVDNDENEHQLSLRTVSLGAGAKDELHIVEAEAMNYEGSPIKVTLATLKMSVQPTVSLGGFEITPPVVLRLKCGSGPVHISGQHLVAVEEDAESEDEDEEDVKLLGMSGKRSAPGGGNKVPQKKVKLDEDDEDDDEDDEDDEDDDDDDFDEEETEEKVPVKKSVRDTPAKNAQKSNQNGKDLKPSTPRSKGQESFKKQEKTPKTPKGPSSVEDIKAKMQASIEKGGSLPKVEAKFINYVKNCFRMTDQEAIQDLWQWRKSL
Regarding B2, the binding result in experiment [1] is on record as “no binding”.

B3: RPGR-ORF15 (retina-enriched RPGR-ORF15 isoform(s)) (protein, mouse, UniProt Q9R0X5-5 1-1305, looked up)
chain: MAESESLVPDTGAVFTFGKTKFAENIPSKFWFKNDIPICLSCGDEHTAIVTGNNKLYMFGSNNWGQLGLGSKAAIIKPTCIKALKPEKVKLAACGRNHTLVSTDTGGVYAAGGNNEGQLGLGDTDDRDTFHQIVFFTPADTIKQLSAGANTSAALTEDGKLFMWGDNSEGQIGLEDKSNVCIPHEVTVGKPISWISCGYYHSAFVTMDGELYTFGEPENGKLGLPNELLMNHRSPQRVLGIPERVIQVACGGGHTVVLTEKVVYAFGLGQFGQLGLGTFLFETSEPKIIERIKDQKICHISCGENHTALMTELGLLYTFGDGRHGKLGLGMENFTNQFFPTLCSNFLRFAVQLIACGGCHMLVFATPRLGTIDEPKFEDVYEPYISTGSFSINDLSPRSSLNRSLSARLRRRERERPPCSASMVGTLPPLEGTSASTSAYFYPSSPPFHLSVNNYPEKSPSESMEPLDSDYFEDKMNKDTETENSSAVDSENFGETNDILNMTHMMTTSSNEKLLDFSPIQKQQNQDTFEKVMESTPCTENEDSYEYEEMSKIKEVTVYKQYLAKGIYMIRPAEILEAFSDEEVGNGLDQVEEPRVFTDGKGLQSKQVGKESDEEIVSEKKTEVMEVADVKKIRESEENSKSDSLFDDLPDKTMNSESEDNKDIAEERRSSEQNMTFDSETELVEEPDSYMECERHSEQDSAEELEQPKLVEYSSEEKDEKDEKDDDEVETENLWYDRNCTEQETENVFRATRFFPKFDLKHDHLSGIPEEQEGPEDSEGNVVVEQVVQAQKENLEFEGDRKEAKAEAPSDVITEKEVSESERESGGEREDRSEGDGDQICEKVSLETEHLQRAQGKQERKKGKDKRARCILDMKEREEDKGWEKGSEGGDKMKRDEGNQEKRKKEMEERDAGDERSEEEEGEEEEPEEGEKEEGGEEEEGTSEDQSREDEGDRQEKEGRREGKGRQEDGREGWKEGEEQEQEEEIEEGEEEEREGEEEGGEEEGEGEGEREEEGEGEEEGEGEEEGEGEEEGEGEEEGEGEEEGEGEEEGEGEEEGEGEEDGEGEEDGEGEEEGEGEEEGEREEDGEGEEDGEGEEEGEGEEEGEGEEEGEGEEEGEGEGEEEGEGEWEGEEEGEGEEEGEGEEEGEGEEEGEGEEEGEGEEEGGEDDEGEELEKKKGDITEEEEEEEEGQEGDEREREEHGSCEDDVEEDKTYDREEGEYKKAIGKVADNESQEDRKQSPKVSKINGSMKYGRHGTYSEKPITNLGKTQPSKMPMESRQLVENGLLGSERFWSDVLPLYLELK
Take B3: in experiment [2], the fold higher level co-immunoprecipitated compared with the WT protein is 50 times.
